In the NIST ThermoML archive (doi:10.1021/je4004542):

Details: for surface tension liquid-gas: Ring tensiometer; for mass density: Liquid, isochoric method

COC(F)(F)C(F)(F)C(F)(F)F [heptafluoropropyl methyl ether]
Details | surface tension liquid-gas [mN/m]
282.63 K | 13.7
282.77 K | 13.93
287.73 K | 13.15
287.83 K | 13.47
292.56 K | 13.04
297.67 K | 12.54

Details | mass density [kg/m3]
283.23 K, 39964 kPa | 1540.71
284.96 K, 24913 kPa | 1507.21
285.69 K, 10030 kPa | 1469.44
285.95 K, 1083.6 kPa | 1440.86
287.33 K, 2026 kPa | 1440.73
288.68 K, 3021.9 kPa | 1440.6
289.89 K, 3919.7 kPa | 1440.48
290.57 K, 29908 kPa | 1506.65
291 K, 4729.9 kPa | 1440.38
291.9 K, 15010 kPa | 1468.83
296.23 K, 34913 kPa | 1506.08
298.15 K, 9994.4 kPa | 1439.7
298.15 K, 19997 kPa | 1468.22
298.45 K, 987.1 kPa | 1407.52
300.45 K, 2316.3 kPa | 1407.33
301.51 K, 3015.6 kPa | 1407.24
302.03 K, 40008 kPa | 1505.49
303.04 K, 4032 kPa | 1407.09
304.36 K, 4907.1 kPa | 1406.97
304.43 K, 24980 kPa | 1467.62
305.45 K, 15319 kPa | 1439.01
310.78 K, 29953 kPa | 1467.01
312.11 K, 10022 kPa | 1406.27
312.12 K, 1009.6 kPa | 1369.41
312.57 K, 20469 kPa | 1438.34
313.79 K, 1997.3 kPa | 1369.27
315.49 K, 2985.1 kPa | 1369.12
317.16 K, 3966.3 kPa | 1368.97
317.19 K, 34932 kPa | 1466.39
318.7 K, 4864.6 kPa | 1368.84
319.58 K, 25523 kPa | 1437.69
319.65 K, 14861 kPa | 1405.59
323.78 K, 40025 kPa | 1465.77
326.44 K, 30424 kPa | 1437.05
327.49 K, 1098.2 kPa | 1324.67
327.49 K, 10016 kPa | 1368.08
327.51 K, 19990 kPa | 1404.89
329.49 K, 2043 kPa | 1324.5
331.48 K, 3053.3 kPa | 1324.34
333.43 K, 4045.4 kPa | 1324.18
333.47 K, 35408 kPa | 1436.41
335.24 K, 25016 kPa | 1404.19
335.37 K, 5030.2 kPa | 1324.02
335.65 K, 14779 kPa | 1367.37
340.74 K, 40506 kPa | 1435.74
342.96 K, 29980 kPa | 1403.51
344.67 K, 20018 kPa | 1366.6
345.22 K, 10048 kPa | 1323.21
353.15 K, 14072 kPa | 1322.56
353.15 K, 24901 kPa | 1365.87
353.15 K, 36576 kPa | 1402.6
